Experimental data as given in paper PMC7531004, “Discovery of gramicidin A analogues with altered activities by multidimensional screening of a one-bead-one-compound library” (Nature Communications, 2020).
Several values for one entry are separate records, joined by “and”; a condition that tells them apart may be missing. Identical values can stand only once. Like-named read-outs stand apart in the source and are kept apart here. Where a SMILES comes first, the peptide text is derived from it. [ ]: non-standard residue; d: D form. The star is where a group is joined. NHCH2CH2OH = OCCN*; For = O=C*

What was measured:
[1] = H+/Na+ transport assay of purified peptides; settings: for Supplementary Figure 5 dose-response value (H+/Na+ transport): three replicate lines
Description: First, we evaluated the ion channel function of 1 using liposomes. To mimic a negatively charged Gram-positive bacterial membrane, the liposomes were prepared as large unilamellar vesicles (LUVs) comprising a 19:1 mixture of egg yolk phosphatidylcholine (EYPC) and egg yolk phosphatidylglycerol (EYPG)[57]. Pyranine, a pH-dependent fluorescent dye[58], was encapsulated in the LUVs and a pH gradient was applied across the membrane. H^+/Na^+ transport induced by a peptide was monitored by changes in the fluorescence intensity of pyranine.

[2] = tested on: rabbit red blood cells; settings: red cells of rabbit, 2 h
[3] = Membrane disruption assay of purified peptides (carboxyfluorescein leakage); type: biochemical; design: key: % lysis; Triton X-100 = 100%, DMSO = 0%; settings: three replicate lines
[4] = tested on: Streptococcus pyogenes SSI-9; settings: for antibacterial activity/MIC: S. pyogenes; for Antibacterial activity MIC: SSI-9
In short: (§1)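 Growth inhibition was scored after 18–24 h at 37 °C in cation-adjusted Mueller Hinton broth, with laked horse blood (5%) included for streptococcal strains. Inocula were standardized by OD 625 and diluted to about 5 × 10^4 CFU/well.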

[5] = tested on: Enterococcus faecalis JCM5803; settings: for antibacterial activity/MIC: E. faecalis; for Antibacterial activity MIC: JCM5803
In short: as §1

[6] = tested on: Streptococcus agalactiae JCM5671; settings: for Antibacterial activity MIC: JCM5671; for antibacterial activity/MIC: S. agalactiae
In short: as §1

[7] = tested on: Listeria monocytogenes 10403S; settings: for Antibacterial activity MIC: 10403S; for antibacterial activity/MIC: L. monocytogenes
In short: as §1

[8] = tested on: Streptococcus pneumoniae NBRC 102642; settings: for Antibacterial activity MIC: NBRC 102642; for antibacterial activity/MIC: S. pneumoniae
In short: as §1

[9] = read-out: EC50, H+/Na+ transport assay, 1st experiment
[10] = read-out: EC50, H+/Na+ transport assay, 2nd experiment
[11] = read-out: EC50, H+/Na+ transport assay, 3rd experiment
[12] = read-out: H+/Na+ transport activity EC50, EYPC/EYPG (19:1) LUVs
[13] = read-out: H+/Na+ transport activity/EC50, mean ± SD of three independent experiments

EC50 [1, 9] [nM]	EC50 [1, 10] [nM]	EC50 [1, 11] [nM]	EC50 [1, 12] [nM]	EC50 [1, 13] [nM]	Compound	Supplementary Figure 5 dose-response value (H+/Na+ transport) ([1]; concentration 0.000512 nM)	Supplementary Figure 5 dose-response value (H+/Na+ transport) ([1]; concentration 0.00256 nM)	Supplementary Figure 5 dose-response value (H+/Na+ transport) ([1]; concentration 0.0128 nM)	Supplementary Figure 5 dose-response value (H+/Na+ transport) ([1]; concentration 0.064 nM)	Supplementary Figure 5 dose-response value (H+/Na+ transport) ([1]; concentration 0.32 nM)	Supplementary Figure 5 dose-response value (H+/Na+ transport) ([1]; concentration 1.6 nM)	Supplementary Figure 5 dose-response value (H+/Na+ transport) ([1]; concentration 8 nM)	Supplementary Figure 5 dose-response value (H+/Na+ transport) ([1]; concentration 40 nM)	Supplementary Figure 5 dose-response value (H+/Na+ transport) ([1]; concentration 200 nM)	Supplementary Figure 5 dose-response value (H+/Na+ transport) ([1]; concentration 1000 nM)	Supplementary Figure 5 dose-response value (H+/Na+ transport) ([1]; concentration 5000 nM)	Hemolytic activity HC10 (concentration causing 10% hemolysis) [2] [nM]	Supplementary Figure 1 dose-response value ([3]; concentration 0.000512 nM)	Supplementary Figure 1 dose-response value ([3]; concentration 0.00256 nM)	Supplementary Figure 1 dose-response value ([3]; concentration 0.0128 nM)	other results
2.49	2.93	1.94	2.5	2.45 ± 0.5	CNC(=O)C[C@@H](NC(=O)[C@@H](NC(=O)[C@@H](CC(C)C)NC(=O)[C@H](C)NC(=O)[C@@H](CC(C)C)NC(=O)[C@H](C)NC(=O)CNC(=O)[C@@H](NC=O)C(C)C)C(C)C)C(=O)N[C@@H](Cc1c[nH]c2ccccc12)C(=O)N[C@H](CC(C)C)C(=O)N[C@@H](Cc1c[nH]c2ccccc12)C(=O)N[C@H](CC(C)C)C(=O)N[C@@H](Cc1c[nH]c2ccccc12)C(=O)N[C@@H](C(=O)N[C@@H](Cc1c[nH]c2ccccc12)C(=O)NCCO)[C@H](C)O [B22] (For-VGA[dL]A[dL]V[dD](NHMe)W[dL]W[dL]W[dT]W-NHCH2CH2OH)	3.488 and 0.6119 and 2.737	2.255 and -0.3059 and 2.73	4.874 and 2.041 and 3.252	5.2777 and 5.073 and 4.243	9.536 and 13.0972 and 10.1736	28.0205 and 30.7244 and 31.4442	63.0425 and 64.573 and 66.6211	71.1735 and 74.4694 and 76.8331	80.49 and 75.6285 and 73.1074	79.8358 and 79.3757 and 78.5441	88.1657 and 79.255 and 76.0319	> 3000	5.233 and 5.708 and 3.745	6.399 and 0.9122 and 2	2.405 and 9.3526 and 2.534	Supplementary Figure 1 dose-response value ([3]; concentration 0.064 nM): 4.116 and 2.091 and 9.6371; Supplementary Figure 1 dose-response value ([3]; concentration 0.32 nM): 3.439 and -1.283 and 7.2259; Supplementary Figure 1 dose-response value ([3]; concentration 1.6 nM): 12.4052 and 7.371 and 12.8868; Supplementary Figure 1 dose-response value ([3]; concentration 8 nM): 24.0812 and 19.193 and 19.2236; Supplementary Figure 1 dose-response value ([3]; concentration 40 nM): 21.9455 and 34.569 and 23.6152; Supplementary Figure 1 dose-response value ([3]; concentration 200 nM): 30.6863 and 31.8474 and 39.9799; Supplementary Figure 1 dose-response value ([3]; concentration 1000 nM): 57.1747 and 48.6012 and 49.2408; Supplementary Figure 1 dose-response value ([3]; concentration 5000 nM): 70.9515 and 65.7371 and 71.376; antibacterial activity/MIC [4]: > 64 µg/mL; Antibacterial activity MIC [4]: > 33 µM; antibacterial activity/MIC [5]: 64 µg/mL; Antibacterial activity MIC [5]: 33 µM; Antibacterial activity MIC [6]: > 33 µM; antibacterial activity/MIC [6]: > 64 µg/mL; Antibacterial activity MIC [7]: > 33 µM; antibacterial activity/MIC [7]: > 64 µg/mL; Antibacterial activity MIC [8]: 1 µM; antibacterial activity/MIC [8]: 2 µg/mL
4.66	3.91	4.81	4.5	4.46 ± 0.48	CC(C)C[C@@H](NC(=O)[C@H](C)NC(=O)CNC(=O)[C@@H](NC=O)C(C)C)C(=O)N[C@@H](C)C(=O)N[C@@H](C(=O)N[C@H](C(=O)N[C@@H](C(=O)N[C@@H](Cc1c[nH]c2ccccc12)C(=O)N[C@H](CC(C)C)C(=O)N[C@@H](Cc1c[nH]c2ccccc12)C(=O)N[C@H](CC(C)C)C(=O)N[C@@H](Cc1c[nH]c2ccccc12)C(=O)N[C@H](CC(C)C)C(=O)N[C@@H](Cc1c[nH]c2ccccc12)C(=O)NCCO)C(C)C)C(C)C)C(C)C [compound 1, Gramicidin A] (For-VGA[dL]A[dV]V[dV]W[dL]W[dL]W[dL]W-NHCH2CH2OH)	0.1393 and -1.026 and 0.8168	2.399 and 0.2926 and 2.304	3.982 and 3.019 and 2.7829	7.464 and 5.495 and 5.604	9.988 and 12.6133 and 15.027	25.261 and 17.8892 and 24.5099	43.5648 and 41.9563 and 41.0019	66.4966 and 62.6758 and 58.9306	70.2683 and 64.7328 and 64.4099	68.3656 and 69.2628 and 73.7672	72.2926 and 68.3983 and 71.8941	160	1.36 and 3.869 and -1.044	3.2 and 1.0665 and -1.239	3.406 and 6.277 and 1.505	EC55.2 value (threshold concentration of one-point ion transport assay) ([1]; H+/Na+ transport): 5.9 nM; Supplementary Figure 1 dose-response value ([3]; concentration 0.064 nM): 4.522 and 0.6394 and 10.119; Supplementary Figure 1 dose-response value ([3]; concentration 0.32 nM): 0.03727 and -1.4564 and 8.0175; Supplementary Figure 1 dose-response value ([3]; concentration 1.6 nM): 1.309 and 1.672 and 5.415; Supplementary Figure 1 dose-response value ([3]; concentration 8 nM): 11.9937 and 6.964 and 7.105; Supplementary Figure 1 dose-response value ([3]; concentration 40 nM): 14.5572 and 22.409 and 17.147; Supplementary Figure 1 dose-response value ([3]; concentration 200 nM): 26.5638 and 29.1236 and 30.6096; Supplementary Figure 1 dose-response value ([3]; concentration 1000 nM): 36.4056 and 34.1405 and 30.0737; Supplementary Figure 1 dose-response value ([3]; concentration 5000 nM): 57.2698 and 45.8291 and 46.6701; antibacterial activity/MIC [4]: 0.063 µg/mL; Antibacterial activity MIC [4]: 0.033 µM; antibacterial activity/MIC [5]: 0.5 µg/mL; Antibacterial activity MIC [5]: 0.27 µM; Antibacterial activity MIC [6]: 1.1 µM; antibacterial activity/MIC [6]: 2 µg/mL; Antibacterial activity MIC [7]: 4.3 µM; antibacterial activity/MIC [7]: 8 µg/mL; Antibacterial activity MIC [8]: 0.0083 µM; antibacterial activity/MIC [8]: 0.016 µg/mL
